In ChEMBL document CHEMBL1153852, “Steroidal lactones as inhibitors of 17beta-hydroxysteroid dehydrogenase type 5: chemical synthesis, enzyme inhibitory activity, and assessment of estrogenic and androgenic activities” (Eur J Med Chem, 2009):

Experiments:
[1] = biological target: T1, Estrogen receptor (Rattus norvegicus) (UniProt P06211); experiment: Binding affinity to rat uterus estrogen receptor at 10 uM
T1 sequence (whole entry): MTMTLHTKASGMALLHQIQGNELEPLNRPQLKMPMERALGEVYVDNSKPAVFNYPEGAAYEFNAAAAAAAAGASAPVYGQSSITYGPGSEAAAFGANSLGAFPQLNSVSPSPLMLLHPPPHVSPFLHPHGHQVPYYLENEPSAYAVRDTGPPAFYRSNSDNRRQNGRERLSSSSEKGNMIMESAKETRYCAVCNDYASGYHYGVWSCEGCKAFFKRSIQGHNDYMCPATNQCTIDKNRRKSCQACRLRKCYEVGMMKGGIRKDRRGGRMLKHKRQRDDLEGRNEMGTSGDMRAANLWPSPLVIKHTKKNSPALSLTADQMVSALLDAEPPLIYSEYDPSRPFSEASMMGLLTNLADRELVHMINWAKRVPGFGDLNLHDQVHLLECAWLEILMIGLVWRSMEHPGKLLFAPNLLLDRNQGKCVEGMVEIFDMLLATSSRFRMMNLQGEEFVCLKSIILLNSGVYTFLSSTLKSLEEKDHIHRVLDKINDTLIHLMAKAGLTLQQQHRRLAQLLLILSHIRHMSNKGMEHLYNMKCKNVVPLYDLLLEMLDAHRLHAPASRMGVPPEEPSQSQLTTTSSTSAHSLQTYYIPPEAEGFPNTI

[2] = biological target: T2, Progesterone receptor (Rattus norvegicus) (UniProt Q63449); experiment: Binding affinity to rat uterus progesterone receptor at 10 uM
T2 sequence (whole entry): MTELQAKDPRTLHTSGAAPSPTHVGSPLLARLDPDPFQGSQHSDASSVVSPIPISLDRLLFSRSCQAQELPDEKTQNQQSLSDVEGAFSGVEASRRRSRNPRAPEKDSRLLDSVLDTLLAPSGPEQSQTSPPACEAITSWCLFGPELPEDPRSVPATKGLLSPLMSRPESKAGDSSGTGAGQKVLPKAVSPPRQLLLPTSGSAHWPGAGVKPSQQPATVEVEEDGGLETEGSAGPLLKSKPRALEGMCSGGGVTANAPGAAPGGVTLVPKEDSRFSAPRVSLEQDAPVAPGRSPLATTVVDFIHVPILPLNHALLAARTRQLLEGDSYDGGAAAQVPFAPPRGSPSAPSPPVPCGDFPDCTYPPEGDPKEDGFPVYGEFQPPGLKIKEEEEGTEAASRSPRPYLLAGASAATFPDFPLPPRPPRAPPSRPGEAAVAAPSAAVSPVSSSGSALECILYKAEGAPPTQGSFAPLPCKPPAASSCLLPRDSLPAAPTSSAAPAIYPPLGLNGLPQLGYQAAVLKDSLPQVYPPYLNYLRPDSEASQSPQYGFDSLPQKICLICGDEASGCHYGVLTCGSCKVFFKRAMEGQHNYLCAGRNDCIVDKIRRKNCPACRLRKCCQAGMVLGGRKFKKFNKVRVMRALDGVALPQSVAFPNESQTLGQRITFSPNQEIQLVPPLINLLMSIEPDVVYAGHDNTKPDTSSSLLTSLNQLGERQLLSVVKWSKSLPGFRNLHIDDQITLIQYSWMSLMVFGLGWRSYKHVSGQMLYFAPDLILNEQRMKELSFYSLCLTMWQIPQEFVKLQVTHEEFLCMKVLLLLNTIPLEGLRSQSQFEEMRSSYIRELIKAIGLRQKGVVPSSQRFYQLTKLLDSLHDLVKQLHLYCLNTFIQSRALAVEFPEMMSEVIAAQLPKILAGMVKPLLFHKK

[3] = biological target: T3, 17-beta-hydroxysteroid dehydrogenase type 3 (Homo sapiens) (UniProt P37058); experiment: Inhibition of human 17beta-HSD3 expressed in HEK293 cells assessed as enzyme-mediated transformation of [14C]-4-androstene-3,17-dione in to [14C]-testosterone at 1 uM; type: cell-based
T3 sequence (whole entry): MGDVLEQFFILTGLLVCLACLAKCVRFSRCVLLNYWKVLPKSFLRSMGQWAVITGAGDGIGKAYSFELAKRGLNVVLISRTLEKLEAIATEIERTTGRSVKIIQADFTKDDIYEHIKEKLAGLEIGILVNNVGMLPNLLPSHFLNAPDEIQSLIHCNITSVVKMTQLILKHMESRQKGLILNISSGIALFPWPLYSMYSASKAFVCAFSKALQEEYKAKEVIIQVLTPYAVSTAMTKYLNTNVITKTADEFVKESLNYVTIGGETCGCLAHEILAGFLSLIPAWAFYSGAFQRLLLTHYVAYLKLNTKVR

[4] = biological target: T2, Progesterone receptor (Rattus norvegicus); experiment: Binding affinity to rat uterus progesterone receptor at 0.01 uM
[5] = biological target: T2, Progesterone receptor (Rattus norvegicus); experiment: Binding affinity to rat uterus progesterone receptor at 1 uM

## CC1(C)CC[C@@]2(CC[C@H]3[C@@H]4CCc5cc(O)ccc5[C@H]4CC[C@@]32C)OC1=O
[1]
  Activity: 80%
[2]
  Activity: 35%

## CC1(C)CC[C@@]2(CC[C@H]3[C@@H]4CCc5ccccc5[C@H]4CC[C@@]32C)OC1=O
[3]
  inhibition: 64%
[4]
  Activity: 0%
[5]
  Activity: 5%
